{
  "source": "patent US9149424B2",
  "about": "“Compositions and methods for reducing hepatotoxicity associated with drug administration” (YALE UNIVERSITY, priority 2007, dated 2015)",
  "key": {"[1]": {"tested_on": "wild-type mice", "assay": "APAP induced hepatotoxicity, serum ALT at 12 hours", "type": "in vivo, mouse", "conditions": "aspirin pre-treatment in drinking water; 12 hrs after APAP; P<0.04", "experimental": "(§1) APAP (Sigma, Mo.) solution was made fresh for each experiment in PBS at 20 mg/ml and heated in a water bath to 55° C. to dissolve. APAP was dosed at 500 mg/kg and injected I.P after 15 hrs of starvation. Animals were euthanized by ketamine/xylazine injection at 12 hours for collection of serum, isolation of liver lymphocytes or collection of liver tissue for histology, or they were observed every four hours for 72 hours until they reached criteria for euthanasia (lack of response to stimuli or lack of righting reflex).\n(§2) Aspirin (Sigma, Mo.) was made fresh for each experiment. For dosing prior to APAP it was dissolved in single deionized water at 60 mg/l and heated to 42° C. with rapid stirring to dissolve, then rapidly placed in an ice water bath to cool. Aspirin in water was given to the mice 60-72 hours prior to APAP injection. Assuming water consumption of 3-5 ml per day this dose would be equivalent to a 300-500 mg dose in an 80 kg adult human. For co-administration of APAP and aspirin, aspirin was gavaged at a dose of 6 mg/kg in a volume of 100 ul of water immediately after ip injection of APAP. […]\n(§3) TLR9 antagonist (ODN2088, 50 microg×2) or PBS, were injected ip into wild-type mice immediately after and at 6 hours after APAP injection and total mouse liver was obtained 12 hours after APAP injection for quantitative Q-PCR for IL-1β. […]"}, "[2]": {"tested_on": "IFN-γ", "assay": "Quantitative real-time PCR of total liver 12 hours after APAP, IFN-γ", "type": "in vivo, mouse", "conditions": "aspirin pre-treatment", "experimental": "as §1\n(§4) Q-PCR was performed for IL-1β and IL-18 using commercial primer-probe sets (Applied Biosystems, Framingham, Mass.) and the Applied Biosystem 7500 real-time PCR system. Expression of glyceraldehyde 3-phosphate dehydrogenase was used to standardize the samples, and the results were expressed as a ratio compared with untreated HSCs. Quantitative Real-time PCR for mRNA expression of IL-18, IL-1β, TNF-α and IFN-γ. Total mouse liver was obtained 12 hours after APAP and cDNA was prepared. Quantitative real-time PCR (Q-PCR) was performed for IL-18 and IL-1β using commercial primer-probe sets (Applied Biosystems, Calif.) and the Applied Biosystem 7500 real time PCR system. Expression of GAPDH was used to standardize the samples, and the results were expressed as a ratio compared to control."}, "[3]": {"tested_on": "mice and rats", "conditions": "aspirin 200-600 mg/kg (dose range toxic to humans); cited from earlier work"}, "[4]": {"tested_on": "pro-IL-1β transcript in THP1 cells", "assay": "THP1 cells stimulated with LPS, real-time PCR pro-IL-1β", "type": "cell-based, human", "conditions": "THP1 cells incubated overnight with aspirin (1.5 mM, 0.15 mM), then LPS 10 μg/ml 8 hours", "experimental": "The human monocytic cell line THP1 was maintained in RPMI with 10% FBS. Stimulation with LPS (Sigma, Mo.) was performed by plating cells at 5×10^5 per 24 well, incubating overnight with aspirin or control media prior to adding LPS at 10 μg/ml for 8 hours."}, "[5]": {"tested_on": "NALP3 inflammasome", "assay": "Uric acid (MSU crystal) peritonitis, Gr-1 positive neutrophils in peritoneal lavage", "type": "in vivo, mouse", "conditions": "low dose aspirin (60 mg/l) in drinking water for three days before MSU 3 mg ip; lavage at 3 hours", "experimental": "Peritonitis was induced with uric acid crystals as previously described by injecting 3 mg of MSU intraperitoneally per mouse (27). Three hours after injection peritoneal lavage was performed on mice euthanized by isoflurane inhalation. Neutrophil infiltration was evaluated by flow cytometry. The percent of Gr-1 (BD Pharmingen, CA) positive cells was multiplied by the total cell counts."}, "[6]": {"tested_on": "wild-type mice", "assay": "APAP induced hepatotoxicity, liver histology (H&E) at 12 hours", "type": "in vivo, mouse", "conditions": "aspirin 60 mg/l in drinking water three days before APAP; 12 hours after APAP", "experimental": "as §1\nas §2, with “APAP. Clopidogrel (Gilead Pharmaceuticals, CA.) was dissolved in PBS at 6 mg/ml and administered by gavage of 100 ul, 30 mg/kg, every 24 hours beginning 48 hours prior and ending 24 hours after APAP injection. Cox-1 inhibitor (SC-560).” for “APAP.”"}, "[7]": {"tested_on": "wild-type mice", "assay": "Acetaminophen (APAP) induced hepatotoxicity, survival over 72 hours", "type": "in vivo, mouse", "experimental": "C57BL/6 mice were purchased from commercial sources. […] These mice have been described previously (39, 40). IL-1β was neutralized in by using the anti-IL-1β antibody from clone B122 (a gift of R. Schreiber, Washington University) at a dose of 0.2 mg/mouse iv twice a day for a total of 48 hours after giving APAP. Control mice received Armenian hamster isotype control antibody. For survival experiments animals were euthanized when they became moribund using criteria of lack of response to stimuli or lack of righting reflex. Animal protocols were approved by the Yale University animal care and use committee. [include references for IPAF−/− (M. Lara-Tejero et al. JEM 2006) and IL-18−/−. Need to add TLR9−/− and TLR3−/−]\nas §1\nAspirin (Sigma, Mo.) was made fresh for each experiment. For dosing prior to APAP it was dissolved in single deionized water at 60 mg/l and heated to 42° C. with rapid stirring to dissolve, then rapidly placed in an ice water bath to cool. Aspirin in water was given to the mice 60-72 hours prior to APAP injection. Assuming water consumption of 3-5 ml per day this dose would be equivalent to a 300-500 mg dose in an 80 kg adult human. For co-administration of APAP and aspirin, aspirin was gavaged at a dose of 6 mg/kg in a volume of 100 ul of water immediately after ip injection of APAP. Clopidogrel (Gilead Pharmaceuticals, CA.) was dissolved in PBS at 6 mg/ml and administered by gavage of 100 ul, 30 mg/kg, every 24 hours beginning 48 hours prior and ending 24 hours after APAP injection. Cox-1 inhibitor (SC-560). SC-560 (Cayman chemical, MI) was dissolved at 50 mg/ml in DMSO and further dissolved in PBS in order to gavage a dose of 5 mg/kg in 100 ul."}, "[8]": {"tested_on": "pro-IL-1β transcript", "assay": "Quantitative real-time PCR of total liver 12 hours after APAP, pro-IL-1β", "type": "in vivo, mouse", "conditions": "aspirin pre-treatment in drinking water", "experimental": "as §1, §3\nas §4, with “Total mouse liver was obtained 12 hours after APAP and cDNA was prepared.” left out, “Expression of GAPDH was used to standardize the samples, and the results were expressed as a ratio compared to control.” left out"}, "[9]": {"tested_on": "IL-1β", "assay": "ELISA for serum IL-1β after APAP", "type": "in vivo, mouse", "conditions": "APAP with vs without ASA in drinking water; p<0.02", "quoted_text": "ELISA for serum IL1-β was carried out by standard protocols."}, "[10]": {"tested_on": "pro-IL-18 transcript", "assay": "Quantitative real-time PCR of total liver 12 hours after APAP, pro-IL-18", "type": "in vivo, mouse", "conditions": "aspirin pre-treatment in drinking water", "experimental": "as §1, §4"}, "[11]": {"tested_on": "TNF-α", "assay": "Quantitative real-time PCR of total liver 12 hours after APAP, TNF-α", "type": "in vivo, mouse", "conditions": "aspirin pre-treatment", "experimental": "as §1, §4"}},
  "note": "Entries after “also recorded” stand apart in the source; their conditions may differ.",
  "data": [
    {"smiles": "CC(=O)Oc1ccccc1C(=O)O", "note": "[aspirin, acetylsalicylic acid]", "values": [
      {"measurement": "serum ALT", "setting": "[1]", "value": "significantly lower"},
      {"measurement": "expression of IFN-γ, whole liver", "setting": "[2]", "value": "reduced"},
      {"measurement": "liver injury from APAP", "setting": "[3]", "value": "reduce liver injury"},
      {"measurement": "survival from APAP", "setting": "[3]", "value": "not improve survival"},
      {"measurement": "LPS induced up-regulation of pro-IL-1β transcript", "setting": "[4]", "value": "reduced"},
      {"measurement": "neutrophil exudates in MSU peritonitis", "setting": "[5]", "value": "eightfold reduction"},
      {"measurement": "liver histology (liver injury and hemorrhage)", "setting": "[6]", "value": "significant reduction in APAP induced liver injury and hemorrhage; also recorded: markedly improved"},
      {"measurement": "survival after APAP", "setting": "[7]; aspirin 60 mg/l in drinking water 3 days before APAP 500 mg/kg ip, control n=13, aspirin n=17, P<0.02", "value": "markedly improved survival"},
      {"measurement": "survival", "setting": "[7]; aspirin given concordantly with APAP, 6 mg/kg gavage, control 22%+/−19%, P<0.04", "value": 43, "unit": "%+/−11%"},
      {"measurement": "increase in pro-IL-1β message by APAP, whole liver", "setting": "[8]", "value": "reduced to normal levels"},
      {"measurement": "serum IL-1β levels", "setting": "[9]", "value": "significant reduction"},
      {"measurement": "increase in pro-IL-18 message by APAP, whole liver", "setting": "[10]", "value": "reduced to normal levels"},
      {"measurement": "expression of TNF-α, whole liver", "setting": "[11]", "value": "reduced"}
    ]},
    {"smiles": "COc1ccc(-n2nc(C(F)(F)F)cc2-c2ccc(Cl)cc2)cc1", "note": "[SC-560]", "values": [
      {"measurement": "protection against APAP toxicity (survival)", "setting": "[7]; SC-560 5 mg/kg gavage twice daily from 60 hours before to 48 hours after APAP, n=10 each, P<0.97", "value": "did not protect"}
    ]},
    {"smiles": "COC(=O)[C@H](c1ccccc1Cl)N1CCc2sccc2C1", "note": "[clopidogrel]", "values": [
      {"measurement": "protection against APAP toxicity (survival)", "setting": "[7]; clopidogrel 30 mg/kg gavage every 24 hrs from 48 hours before to 24 hours after APAP, n=15 each, P<0.31", "value": "did not protect"}
    ]}
  ]
}
